According to a melting point compilation (Tetko et al.; mined from patent text by program, amines drawn as free bases though some values may be those of a salt):

Row | SMILES | melting point [°C]
1 | Cc1nc(N2CCCC2)sc1C(=O)c1ccc(Cl)c([N+](=O)[O-])c1 | 168 to 171
2 | Cc1ccn(-c2ccc(S(C)(=O)=O)cc2)c1-c1ccc(F)cc1 | 157 to 158
3 | O=C(Nc1ccccc1C(F)(F)F)C1CCCCC1 | 153 to 154
4 | O=C1Nc2cccc(-c3cccc(NC(=O)c4ccc(F)cc4)c3)c2/C1=C/c1ccc[nH]1 | 130 to 131
5 | C=CCn1ncc2cc3ncc(-c4ccc(OC)c(F)c4)nc3cc21 | 121 to 124
6 | O=c1ccn(-c2ccc(N3CCOCC3)cc2)nc1-c1ccnn1-c1ccccc1 | 205 to 206
7 | O=[N+]([O-])c1cc(-c2nnc(Cl)cc2O)ccc1Cl | 204 to 209
8 | O=[N+]([O-])c1cccc(-c2cccc([N+](=O)[O-])c2)c1 | 200
9 | CC(C)(O)C#Cc1ccc(F)cc1 | 124
10 | CCCCCCCCCCCC(=O)c1ccc2c(Cl)cccc2c1O | 86 to 87
11 | CC(C)(C)Nc1c(NCc2ccccc2C(F)(F)F)c(=O)c1=O | 237 to 239
12 | CCN(CC)c1nc(N)nc(-c2ccc(Cl)c(Cl)c2)n1 | 201 to 204
13 | CCCC(=O)SC1CCN(C(C(=O)C2CC2)c2ccccc2F)CC1 (configuration not stated) | 97 to 98
14 | C[C@@H](O[Si](C)(C)C(C)(C)C)[C@H]1C(=O)N([Si](C)(C)C(C)(C)C)[C@@H]1CC=O | 115 to 116
15 | Cc1ccc([N+](=O)[O-])c(Cl)c1C#N | 106 to 107
16 | CN(C)C1CSC(C#N)(c2ccc(Cl)cc2)SC1 (configuration not stated) | 110 to 111
17 | CC(C)(C)OC(=O)C=Cc1ccc(C(=O)C(=C(F)F)c2ccccc2)cc1 | 88 to 94
18 | CNc1nc(NC)nc(OC(F)(F)F)n1 | 68 to 72

Row | SMILES | melting point [°C]
19 | O=C(Nc1ccc2c(c1)CN(C(=O)OCc1ccccc1)CC2)OCc1ccccc1 | 113 to 115
20 | CS(=O)(=O)c1ccc(-c2sc(CC#N)nc2-c2ccc(F)cc2)cc1 | 151 to 152
21 | OCc1c(-c2ccc(F)cc2)nn2ccc3c(c12)CCO3 | 189 to 190
22 | Cc1oc2c(Br)cc(C=O)cc2c1C | 126
23 | CON(C)C(=O)Nc1c(C(=O)c2occc2CO)[nH]c2cc(Cl)ccc12 | 221 to 222
24 | CC=CC(=O)N1CCN(NC(=O)c2ccc(F)cc2)CC1 | 191 to 193
25 | C1=Cc2ccccc2C(C2CCN(C3CCCCC3)CC2)c2ccccc21 | 162 to 164
26 | COc1cc2nc(N3CCN(C(=O)C=Cc4ccc(N(C)C)cc4)CC3)nc(N)c2cc1OC | 288 to 289
27 | O=C1OCCN1CCCN1C(=O)N2C[C@@H](Cc3ccccc3)N=C2c2[nH]c(C3CCCC3)nc21 | 210 to 212
28 | N=C(N)NCCCC(NC(=O)C(CS)Cc1ccccc1)C(=O)O (configuration not stated) | 135
29 | C#CC(C)N1CCNC1=O (configuration not stated) | 90 to 92
30 | CC[C@@H](C)NC1=NS(=O)(=O)c2sc(Cl)cc2N1 | 215 to 220
31 | O=C(O)c1ccc(C=Cc2cc(=O)cc(-c3ccccc3)o2)cc1 | > 300
32 | c1ccc(-c2cc3nnc(-c4ccccc4)n3nc2OCc2cscn2)cc1 | 236
33 | NOCc1cnn(C(c2ccccc2)(c2ccccc2)c2ccccc2)c1 | 133 to 136
34 | CCC(COC)Nc1nc(C)nc(N2CCc3cc(OC)cc(Cl)c32)c1C=O (configuration not stated) | 150 to 153
35 | O=C(OC1CCCCC1)c1ncn2c1[C@@H]1CCN1C(=O)c1c(Br)cccc1-2 | 203 to 204

The remaining lines, values ahead:

Row | melting point [°C] | SMILES
36 | 171 to 174 | O=C(O)Cc1ccc(OCc2ccccc2C(=O)O)cc1
37 | 147 to 149 | N#Cc1cccc(CN2C(=O)c3ccccc3C2=O)c1
38 | 104 to 106 | CCOC(=O)c1nccn1Cc1ccccc1N
39 | 158 to 159 | COC(=O)C1=C(C)NC(C)=C(C(=O)O)C1c1ccccc1 (single isomer, unassigned; (-))
40 | 139 to 141 | Cc1cccc(Cl)c1Nc1ccccc1CC(N)=O
41 | 237 to 238 | O=C(Nc1ccc(F)cc1)Nn1cnc2ccccc2c1=O
42 | 148 to 150 | Nc1cc(CO)ccc1Sc1nccnc1Cl
43 | 211 to 212 | CNC(=O)c1cccc(NC(=O)Cc2ccccc2Cl)c1
44 | 75 to 76 | Cc1cc(F)ccc1NCC(=O)NCc1ccccc1
45 | 92 to 94 | COc1ccc(C(O)c2ccccn2)cc1OC (configuration not stated)
46 | 44 to 47 | CN(C)CC(=O)Nc1ccccc1[N+](=O)[O-]
47 | 196 | CCOC(=O)N1CCN(c2ccc(-n3cc[nH]c3=O)cc2)CC1
48 | 159 | CCOP(=O)(COc1ccc2c(c1)[nH]c1ccccc12)OCC
49 | 144 to 146 | CCCc1c(C(=O)NCc2ccc3c(Br)c(OCC(=O)OC)ccc3c2)cnn1-c1ccccc1
50 | 142 to 144 | Cc1cccc([N+](=O)[O-])c1CNc1cccn2c(Cl)c(C)nc12
51 | 215 to 217 | O=C(O)c1ccc(NC(=O)c2ccccc2-c2ccccc2)nc1
52 | 95 to 97 | Cc1cc(F)ccc1-c1cccc(C(=O)Nc2ccc(OCCN3CCOCC3)c3ccccc23)c1
